Measurements reported in ChEMBL document CHEMBL1201862, “PubChem BioAssay data set” (2004).
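96-well plates; 48 h exposure; 5 concentrations. Endpoints by linear interpolation between flanking doses. Not reached: highest tested concentration assigned. Abbreviation: GI50, concentration required for 50% inhibition of growth.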 The source made the active and inactive calls. Rule as the data show it: active = GI50 up to about 1.1 µM and inactive = higher.

How the values were obtained:
Experiment in all cases: NCI tumour cell line growth inhibition, 48 h
A498 = test system: A498
ACHN = test system: ACHN
BT-549 = test system: BT-549
CCRF-CEM = test system: CCRF-CEM
DU-145 = test system: DU-145
HCT-116 = test system: HCT-116
LOX IMVI = test system: LOX IMVI
OVCAR-5 = test system: OVCAR-5
OVCAR-8 = test system: OVCAR-8
PC-3 = test system: PC-3
SK-MEL-5 = test system: SK-MEL-5
SW-620 = test system: SW-620
TK-10 = test system: TK-10
HL-60 = test system: HL-60
MOLT-4 = test system: MOLT-4
Malme-3M = test system: Malme-3M
NCI-H226 = test system: NCI-H226
NCI/ADR-RES = test system: NCI/ADR-RES
OVCAR-4 = test system: OVCAR-4

SMILES	GI50 (A498)	GI50 (ACHN)	GI50 (BT-549)	GI50 (CCRF-CEM)	GI50 (DU-145)	GI50 (HCT-116)	GI50 (LOX IMVI)	GI50 (OVCAR-5)	GI50 (OVCAR-8)	GI50 (PC-3)	GI50 (SK-MEL-5)	GI50 (SW-620)	GI50 (TK-10)	GI50 (HL-60)	GI50 (MOLT-4)	GI50 (Malme-3M)	GI50 (NCI-H226)	GI50 (NCI/ADR-RES)	GI50 (OVCAR-4)
CC1CCCC2=C1C(c1ccc(Cl)cc1)n1c(s/c(=C\c3ccc(Cl)cc3)c1=O)=N2 (centres undefined)	> 100 µM (inactive)	> 100 µM (inactive)	22.1 µM (inactive)	> 100 µM (inactive)	> 100 µM (inactive)	> 100 µM (inactive)	> 100 µM (inactive)	> 100 µM (inactive)	> 100 µM (inactive)	> 100 µM (inactive)	> 100 µM (inactive)	> 100 µM (inactive)	> 100 µM (inactive)	–	–	–	–	–	–
N#Cc1nc(C#N)c(NC(=O)c2ccccc2C(=O)O)[nH]1	> 100 µM (inactive)	> 100 µM (inactive)	–	> 100 µM (inactive)	> 100 µM (inactive)	> 100 µM (inactive)	> 100 µM (inactive)	> 100 µM (inactive)	> 100 µM (inactive)	> 100 µM (inactive)	> 100 µM (inactive)	> 100 µM (inactive)	> 100 µM (inactive)	> 100 µM (inactive)	> 100 µM (inactive)	> 100 µM (inactive)	> 100 µM (inactive)	> 100 µM (inactive)	–
O=C(O)CC(NC(=O)C(F)(F)F)C(=O)NC1Cc2ccccc2OC1=O (centres undefined)	–	> 100 µM (inactive)	> 100 µM (inactive)	–	> 100 µM (inactive)	–	–	> 100 µM (inactive)	> 100 µM (inactive)	> 100 µM (inactive)	> 100 µM (inactive)	> 100 µM (inactive)	> 100 µM (inactive)	–	> 100 µM (inactive)	> 100 µM (inactive)	> 100 µM (inactive)	> 100 µM (inactive)	–
CC1(C)CC(=O)/C(=C/C2CCNC2=S)C(=O)N1 (centres undefined)	> 100 µM (inactive)	> 100 µM (inactive)	–	> 100 µM (inactive)	> 100 µM (inactive)	> 100 µM (inactive)	> 100 µM (inactive)	> 100 µM (inactive)	> 100 µM (inactive)	> 100 µM (inactive)	> 100 µM (inactive)	> 100 µM (inactive)	> 100 µM (inactive)	> 100 µM (inactive)	> 100 µM (inactive)	> 100 µM (inactive)	> 100 µM (inactive)	> 100 µM (inactive)	> 100 µM (inactive)
CCOC(=O)C1(C(=O)OCC)C[C@]23OCCC(=O)[C@H]2[C@H]2C(=O)OC(C)(C)O[C@]23C1	> 100 µM (inactive)	> 100 µM (inactive)	–	> 100 µM (inactive)	> 100 µM (inactive)	> 100 µM (inactive)	> 100 µM (inactive)	> 100 µM (inactive)	> 100 µM (inactive)	> 100 µM (inactive)	> 100 µM (inactive)	> 100 µM (inactive)	> 100 µM (inactive)	> 100 µM (inactive)	> 100 µM (inactive)	> 100 µM (inactive)	–	> 100 µM (inactive)	> 100 µM (inactive)
COC(=O)C(CSSC[C@H](N/C(C)=C/C(C)=O)C(=O)OC)N/C(C)=C/C(C)=O (some centres undefined)	> 100 µM (inactive)	< 0.01 µM (active)	–	26.4 µM (inactive)	25.7 µM (inactive)	27 µM (inactive)	14 µM (inactive)	18.7 µM (inactive)	< 0.01 µM (active)	54.1 µM (inactive)	67.3 µM (inactive)	34.1 µM (inactive)	2.66 µM (inactive)	30.2 µM (inactive)	32.3 µM (inactive)	14.4 µM (inactive)	> 100 µM (inactive)	> 100 µM (inactive)	> 100 µM (inactive)
Cn1nc(-c2ccccc2)c2c(-c3ccccc3)c3cc(Cl)ccc3nc21	> 100 µM (inactive)	> 100 µM (inactive)	> 100 µM (inactive)	0.0311 µM (active)	> 100 µM (inactive)	41.3 µM (inactive)	> 90.4 µM (inactive)	> 100 µM (inactive)	> 100 µM (inactive)	> 100 µM (inactive)	> 100 µM (inactive)	> 100 µM (inactive)	> 100 µM (inactive)	18.2 µM (inactive)	15.8 µM (inactive)	> 100 µM (inactive)	> 100 µM (inactive)	–	> 100 µM (inactive)
Cc1nc2c(=S)[nH]ncc2[nH]1	> 100 µM (inactive)	> 100 µM (inactive)	> 100 µM (inactive)	> 100 µM (inactive)	–	> 100 µM (inactive)	> 100 µM (inactive)	> 100 µM (inactive)	> 100 µM (inactive)	> 100 µM (inactive)	> 100 µM (inactive)	> 100 µM (inactive)	> 100 µM (inactive)	> 100 µM (inactive)	> 10 µM (inactive)	94.8 µM (inactive)	> 100 µM (inactive)	> 100 µM (inactive)	> 100 µM (inactive)
c1ccc2cc(CNCCOCCOCCNCc3ccc4ccccc4c3)ccc2c1	1.71 µM (inactive)	1.79 µM (inactive)	1.78 µM (inactive)	1.97 µM (inactive)	1.78 µM (inactive)	1.58 µM (inactive)	1.46 µM (inactive)	1.9 µM (inactive)	1.77 µM (inactive)	2.17 µM (inactive)	2.39 µM (inactive)	1.91 µM (inactive)	1.62 µM (inactive)	1.85 µM (inactive)	1.92 µM (inactive)	1.76 µM (inactive)	2.09 µM (inactive)	–	2.47 µM (inactive)
COc1ccc(Oc2cccc(C3C4C(=O)N(c5ccc(C)c(Cl)c5)C(=O)C4ON3C(C(N)=O)c3ccccc3)c2)cc1 (centres undefined)	38.5 µM (inactive)	23.5 µM (inactive)	–	14 µM (inactive)	9.59 µM (inactive)	14 µM (inactive)	13.7 µM (inactive)	17.7 µM (inactive)	17.5 µM (inactive)	18.9 µM (inactive)	9.55 µM (inactive)	20.9 µM (inactive)	19.4 µM (inactive)	12.6 µM (inactive)	11.8 µM (inactive)	15.8 µM (inactive)	15.6 µM (inactive)	–	18.9 µM (inactive)
COC12OC3(C4OC41)C(C(=O)O[C@H]3CO[Si](C)(C)C(C)(C)C)C2S(=O)(=O)c1ccccc1 (some centres undefined)	–	2.69 µM (inactive)	> 49.9 µM (inactive)	0.597 µM (active)	> 4.65 µM (inactive)	4.16 µM (inactive)	–	> 4.65 µM (inactive)	4.65 µM (inactive)	> 4.65 µM (inactive)	–	1.52 µM (inactive)	4.06 µM (inactive)	< 0.01 µM (active)	2.25 µM (inactive)	> 41.8 µM (inactive)	> 100 µM (inactive)	> 100 µM (inactive)	–
CCOC(=O)c1c(SCCN2CCOCC2)n(-c2ccccc2)c(=S)n(-c2ccccc2)c1=O	–	> 100 µM (inactive)	39.3 µM (inactive)	30.1 µM (inactive)	> 10 µM (inactive)	–	18.5 µM (inactive)	> 100 µM (inactive)	> 100 µM (inactive)	–	27.7 µM (inactive)	21.1 µM (inactive)	> 100 µM (inactive)	20.8 µM (inactive)	26.7 µM (inactive)	> 100 µM (inactive)	38.5 µM (inactive)	–	> 100 µM (inactive)
COC(=O)c1ccc2c(c1)CC1(C2)Cc2cc3c(cc2C1)CCC3	> 100 µM (inactive)	> 100 µM (inactive)	–	> 100 µM (inactive)	> 100 µM (inactive)	> 100 µM (inactive)	> 100 µM (inactive)	> 100 µM (inactive)	> 100 µM (inactive)	> 100 µM (inactive)	> 100 µM (inactive)	> 100 µM (inactive)	> 100 µM (inactive)	> 100 µM (inactive)	> 100 µM (inactive)	79.6 µM (inactive)	–	> 100 µM (inactive)	> 100 µM (inactive)
CC(C)(C)OC(=O)C1/C(=C/CBr)CN1C(=O)OC(C)(C)C (centres undefined)	16.4 µM (inactive)	16.7 µM (inactive)	16.7 µM (inactive)	2.64 µM (inactive)	–	11.4 µM (inactive)	3.24 µM (inactive)	18.7 µM (inactive)	16.9 µM (inactive)	14.3 µM (inactive)	14.3 µM (inactive)	5 µM (inactive)	16.9 µM (inactive)	2.66 µM (inactive)	6.56 µM (inactive)	18 µM (inactive)	–	22.8 µM (inactive)	2.86 µM (inactive)
CCOc1ccnc2c(OC)c(C)c3nc4ccccc4nc3c12	> 100 µM (inactive)	> 100 µM (inactive)	–	> 100 µM (inactive)	41 µM (inactive)	> 100 µM (inactive)	> 100 µM (inactive)	> 100 µM (inactive)	57.4 µM (inactive)	89.3 µM (inactive)	> 100 µM (inactive)	> 100 µM (inactive)	> 100 µM (inactive)	> 100 µM (inactive)	82.6 µM (inactive)	> 100 µM (inactive)	> 100 µM (inactive)	71.1 µM (inactive)	> 100 µM (inactive)
CCC1=CC(OCc2ccccc2)C(CCN(Cc2ccccc2)C(=O)OCc2ccccc2)C1 (centres undefined)	16 µM (inactive)	15.3 µM (inactive)	–	–	16.4 µM (inactive)	–	14.9 µM (inactive)	13.5 µM (inactive)	17.5 µM (inactive)	14.3 µM (inactive)	15.4 µM (inactive)	18.4 µM (inactive)	16.5 µM (inactive)	–	10.2 µM (inactive)	15.6 µM (inactive)	15.7 µM (inactive)	15.9 µM (inactive)	13.7 µM (inactive)
